In PubChem BioAssay (NCI):
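Five compound concentrations were applied to cells in 96-well plates for 48 hours; endpoints were derived by simple linear interpolation of the resulting dose-response curve. TGI is the concentration that stops growth completely.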

Tests used:
Assay in all cases: NCI tumour cell line growth inhibition, 48 h
SK-MEL-2 melanoma = test system: SK-MEL-2 melanoma
CCRF-CEM leukemia = test system: CCRF-CEM leukemia
CAKI-1 renal = test system: CAKI-1 renal
SN12C renal = test system: SN12C renal
DLD-1 colon = test system: DLD-1 colon
MALME-3M melanoma = test system: MALME-3M melanoma
HCC-2998 colon = test system: HCC-2998 colon
DMS 114 small cell lung = test system: DMS 114 small cell lung
SF-268 CNS = test system: SF-268 CNS
M14 melanoma = test system: M14 melanoma
SF-539 CNS = test system: SF-539 CNS
IGROV1 ovarian = test system: IGROV1 ovarian
K-562 leukemia = test system: K-562 leukemia
LXFL 529 NSCLC = test system: LXFL 529 NSCLC
OVCAR-3 ovarian = test system: OVCAR-3 ovarian
NCI-H460 lung = test system: NCI-H460 lung
UO-31 renal = test system: UO-31 renal
M19-MEL melanoma = test system: M19-MEL melanoma
NCI-H23 lung = test system: NCI-H23 lung
SR leukemia = test system: SR leukemia
A498 renal = test system: A498 renal
OVCAR-5 ovarian = test system: OVCAR-5 ovarian
786-0 renal = test system: 786-0 renal
OVCAR-4 ovarian = test system: OVCAR-4 ovarian
SNB-78 CNS = test system: SNB-78 CNS
SK-MEL-28 melanoma = test system: SK-MEL-28 melanoma
RPMI-8226 leukemia = test system: RPMI-8226 leukemia
UACC-62 melanoma = test system: UACC-62 melanoma
TK-10 renal = test system: TK-10 renal
U251 CNS = test system: U251 CNS
HOP-92 NSCLC = test system: HOP-92 NSCLC
COLO 205 colon = test system: COLO 205 colon
SNB-75 CNS = test system: SNB-75 CNS
MOLT-4 leukemia = test system: MOLT-4 leukemia
A549 NSCLC = test system: A549 NSCLC
DMS 273 small cell lung = test system: DMS 273 small cell lung
SNB-19 CNS = test system: SNB-19 CNS
ACHN renal = test system: ACHN renal
HT29 colon = test system: HT29 colon
UACC-257 melanoma = test system: UACC-257 melanoma
NCI-H522 lung = test system: NCI-H522 lung
SW-620 colon = test system: SW-620 colon
XF 498 CNS = test system: XF 498 CNS
NCI-H226 lung = test system: NCI-H226 lung
HOP-18 NSCLC = test system: HOP-18 NSCLC
SK-OV-3 ovarian = test system: SK-OV-3 ovarian
RXF 393 renal = test system: RXF 393 renal
OVCAR-8 ovarian = test system: OVCAR-8 ovarian
SK-MEL-5 melanoma = test system: SK-MEL-5 melanoma
LOX IMVI melanoma = test system: LOX IMVI melanoma
KM12 colon = test system: KM12 colon
HCT-116 colon = test system: HCT-116 colon
HCT-15 colon = test system: HCT-15 colon
SF-295 CNS = test system: SF-295 CNS
HL-60(TB) leukemia = test system: HL-60(TB) leukemia
KM20L2 colon = test system: KM20L2 colon
EKVX NSCLC = test system: EKVX NSCLC
HOP-62 NSCLC = test system: HOP-62 NSCLC
RXF-631 renal = test system: RXF-631 renal

For `CCN(CC)CCNc1ccc(C)c2sc3ccc(O)cc3c(=O)c12`, the TGI (SK-MEL-2 melanoma) was 3.24 µM, the TGI (CCRF-CEM leukemia) was 1.06 µM and the TGI (CAKI-1 renal) was 21.8 µM. For the same compound, the TGI (SN12C renal) was 1.85 µM, the TGI (DLD-1 colon) was 3.47 µM and the TGI (MALME-3M melanoma) was 2.38 µM. It also gave a TGI (HCC-2998 colon) of 2.66 µM, a TGI (DMS 114 small cell lung) of 2.27 µM and a TGI (SF-268 CNS) of 7.93 µM. The TGI (M14 melanoma) was 2.48 µM, the TGI (SF-539 CNS) was 2.5 µM and the TGI (IGROV1 ovarian) was 5.19 µM. The TGI (K-562 leukemia) was 3.62 µM, the TGI (LXFL 529 NSCLC) was 2.54 µM and the TGI (OVCAR-3 ovarian) was 4.4 µM. The TGI (NCI-H460 lung) was 1.37 µM, the TGI (UO-31 renal) was 3.82 µM and the TGI (M19-MEL melanoma) was 2.36 µM. It also gave a TGI (NCI-H23 lung) of 14 µM, a TGI (SR leukemia) of 0.981 µM and a TGI (A498 renal) of 4.27 µM. It also gave a TGI (OVCAR-5 ovarian) of 9.3 µM, a TGI (786-0 renal) of 2.01 µM and a TGI (OVCAR-4 ovarian) of 6.12 µM. For the same compound, the TGI (SNB-78 CNS) was 7.88 µM, the TGI (SK-MEL-28 melanoma) was 2.96 µM and the TGI (RPMI-8226 leukemia) was 4.95 µM. It also gave a TGI (UACC-62 melanoma) of 2.21 µM, a TGI (TK-10 renal) of 9.95 µM and a TGI (U251 CNS) of 2.44 µM. The TGI (HOP-92 NSCLC) was 7.17 µM, the TGI (COLO 205 colon) was 3.27 µM and the TGI (SNB-75 CNS) was 4.3 µM. The TGI (MOLT-4 leukemia) was 1.16 µM, the TGI (A549 NSCLC) was 1.91 µM and the TGI (DMS 273 small cell lung) was 1.91 µM. For the same compound, the TGI (SNB-19 CNS) was 15.6 µM, the TGI (ACHN renal) was 1.63 µM and the TGI (HT29 colon) was 3.24 µM. It also gave a TGI (UACC-257 melanoma) of 2.99 µM, a TGI (NCI-H522 lung) of 2.7 µM and a TGI (SW-620 colon) of 2.38 µM. For the same compound, the TGI (XF 498 CNS) was 2.56 µM, the TGI (NCI-H226 lung) was 2 µM and the TGI (HOP-18 NSCLC) was 5.94 µM. It also gave a TGI (SK-OV-3 ovarian) of 5.59 µM, a TGI (RXF 393 renal) of 5.82 µM and a TGI (OVCAR-8 ovarian) of 3.2 µM. For the same compound, the TGI (SK-MEL-5 melanoma) was 2.3 µM, the TGI (LOX IMVI melanoma) was 2.18 µM and the TGI (KM12 colon) was 3.39 µM. The TGI (HCT-116 colon) was 2.56 µM, the TGI (HCT-15 colon) was 2.72 µM and the TGI (SF-295 CNS) was 1.98 µM. For the same compound, the TGI (HL-60(TB) leukemia) was 0.979 µM, the TGI (KM20L2 colon) was 5.46 µM and the TGI (EKVX NSCLC) was 25.9 µM. For the same compound, the TGI (HOP-62 NSCLC) was 1.66 µM.

With `COc1cc([C@H]2Oc3c(c(O)cc4oc(-c5ccccc5)cc(=O)c34)O[C@@H]2CO)ccc1O` the TGI (SK-MEL-2 melanoma) was 57.6 µM, the TGI (CCRF-CEM leukemia) was 23.7 µM and the TGI (CAKI-1 renal) was greater than 100 µM. The TGI (SN12C renal) was greater than 100 µM, the TGI (DLD-1 colon) was 56.4 µM and the TGI (MALME-3M melanoma) was 83.4 µM. The TGI (HCC-2998 colon) was greater than 100 µM, the TGI (DMS 114 small cell lung) was greater than 100 µM and the TGI (SF-268 CNS) was greater than 100 µM. The TGI (M14 melanoma) was 38.5 µM, the TGI (SF-539 CNS) was greater than 100 µM and the TGI (IGROV1 ovarian) was greater than 100 µM. It also gave a TGI (K-562 leukemia) greater than 100 µM, a TGI (LXFL 529 NSCLC) greater than 100 µM and a TGI (NCI-H460 lung) of 32.5 µM. For the same compound, the TGI (UO-31 renal) was greater than 100 µM, the TGI (M19-MEL melanoma) was greater than 100 µM and the TGI (NCI-H23 lung) was greater than 100 µM. It also gave a TGI (SR leukemia) of 36.7 µM, a TGI (A498 renal) greater than 100 µM and a TGI (786-0 renal) greater than 100 µM. For the same compound, the TGI (OVCAR-4 ovarian) was greater than 100 µM, the TGI (SNB-78 CNS) was greater than 100 µM and the TGI (SK-MEL-28 melanoma) was greater than 100 µM. The TGI (UACC-62 melanoma) was greater than 100 µM, the TGI (HOP-92 NSCLC) was 87.6 µM and the TGI (COLO 205 colon) was greater than 100 µM. The TGI (SNB-75 CNS) was greater than 100 µM, the TGI (DMS 273 small cell lung) was 25 µM and the TGI (NCI-H522 lung) was greater than 100 µM. The TGI (XF 498 CNS) was greater than 100 µM, the TGI (NCI-H226 lung) was greater than 100 µM and the TGI (SK-OV-3 ovarian) was greater than 100 µM. The TGI (HCT-116 colon) was greater than 100 µM, the TGI (RXF-631 renal) was 62.7 µM and the TGI (HL-60(TB) leukemia) was 36.2 µM. For the same compound, the TGI (HOP-62 NSCLC) was greater than 100 µM.

With `CC(C)(C)OC(=O)N1N=NC2C3CC(=O)C(O3)C21` (stereo not drawn) the TGI (CCRF-CEM leukemia) was greater than 100 µM, the TGI (CAKI-1 renal) was greater than 100 µM and the TGI (SN12C renal) was greater than 100 µM. The TGI (DLD-1 colon) was greater than 100 µM, the TGI (MALME-3M melanoma) was greater than 100 µM and the TGI (M14 melanoma) was greater than 100 µM. It also gave a TGI (SF-539 CNS) greater than 100 µM, a TGI (IGROV1 ovarian) greater than 100 µM and a TGI (K-562 leukemia) greater than 100 µM. The TGI (LXFL 529 NSCLC) was greater than 100 µM, the TGI (OVCAR-3 ovarian) was greater than 100 µM and the TGI (NCI-H460 lung) was greater than 100 µM. For the same compound, the TGI (UO-31 renal) was greater than 100 µM, the TGI (SR leukemia) was greater than 100 µM and the TGI (A498 renal) was greater than 100 µM. The TGI (786-0 renal) was greater than 100 µM, the TGI (RPMI-8226 leukemia) was greater than 100 µM and the TGI (TK-10 renal) was greater than 100 µM. The TGI (HOP-92 NSCLC) was greater than 100 µM, the TGI (MOLT-4 leukemia) was greater than 100 µM and the TGI (A549 NSCLC) was greater than 100 µM. The TGI (DMS 273 small cell lung) was greater than 100 µM, the TGI (ACHN renal) was greater than 100 µM and the TGI (NCI-H522 lung) was greater than 100 µM. It also gave a TGI (SW-620 colon) greater than 100 µM, a TGI (HOP-18 NSCLC) greater than 100 µM and a TGI (RXF 393 renal) greater than 100 µM. For the same compound, the TGI (OVCAR-8 ovarian) was greater than 100 µM, the TGI (SK-MEL-5 melanoma) was greater than 100 µM and the TGI (RXF-631 renal) was greater than 100 µM. It also gave a TGI (SF-295 CNS) greater than 100 µM, a TGI (KM20L2 colon) greater than 100 µM and a TGI (EKVX NSCLC) greater than 100 µM.
